Consider eight molecules from patent US20090182026A1, “ALPHA 2 ADRENERGIC AGONISTS” (ALLERGAN, INC., priority 2005, published 2009).

SMILES strings stand for the structures. “Also recorded” adds a separate entry of the source.

The subject of one data set is Alpha adrenergic. Kind of data set: Alpha adrenergic activity of prior-application compound (statement). The following applies: background statement.
Another data set has as its target T1, alpha2A receptor (Homo sapiens, UniProt P08913).
T1 construct: expressed in transfected cells; host or cells: NIH-3T3
T1 sequence (P08913 1-465): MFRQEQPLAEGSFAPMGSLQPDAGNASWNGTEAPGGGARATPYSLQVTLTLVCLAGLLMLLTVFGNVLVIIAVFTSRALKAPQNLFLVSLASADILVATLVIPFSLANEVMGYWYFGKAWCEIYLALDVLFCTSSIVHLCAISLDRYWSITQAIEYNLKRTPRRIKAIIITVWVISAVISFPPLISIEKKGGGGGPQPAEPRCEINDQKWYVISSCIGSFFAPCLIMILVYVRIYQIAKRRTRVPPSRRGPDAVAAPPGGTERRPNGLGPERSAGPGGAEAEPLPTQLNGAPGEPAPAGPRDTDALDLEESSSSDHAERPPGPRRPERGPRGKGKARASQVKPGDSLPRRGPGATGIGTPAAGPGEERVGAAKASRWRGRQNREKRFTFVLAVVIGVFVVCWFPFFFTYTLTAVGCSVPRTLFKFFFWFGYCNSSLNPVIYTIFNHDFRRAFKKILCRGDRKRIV
Kind of data set: RSAT assay, alpha2A receptor. Type of data set: cell-based. Conditions: NIH-3T3 cells, relative to brimonidine, NA = not active at concentrations less than 10 micromolar. As for the experimental part:
(§1) The RSAT assay measures a receptor-mediated loss of contact inhibition that results in selective proliferation of receptor-containing cells in a mixed population of confluent cells. The increase in cell number is assessed with an appropriate transfected marker gene such as […], the activity of which can be easily measured in a 96-well format. Receptors that activate the G protein, Gq, elicit this response. Alpha2 receptors, which normally couple to Gi, activate the RSAT response when coexpressed with a hybrid Gq protein that has a Gi receptor recognition domain, called Gq/i5.
(§2) NIH-3T3 cells are plated at a density of 2×10^6 cells in 15 cm dishes and maintained in Dulbecco's modified Eagle's medium supplemented with 10% calf serum. One day later, cells are cotransfected by calcium phosphate precipitation with mammalian expression plasmids encoding p-SV-β-galactosidase (5-10 μg), receptor (1-2 μg) and G protein (1-2 μg). 40 μg salmon sperm DNA may also be included in the transfection mixture. Fresh media is added on the following day and 1-2 days later, cells are harvested and frozen in 50 assay aliquots. Cells are thawed and 100 μl added to 100 μl aliquots of various concentrations of drugs in triplicate in 96-well dishes. Incubations continue 72-96 hr at 37° C. After washing with phosphate-buffered saline, β-galactosidase enzyme activity is determined by adding […] of the chromogenic substrate (consisting of 3.5 mM o-nitrophenyl-β-D-galactopyranoside and 0.5% nonidet P-40 in phosphate buffered saline), incubating overnight at 30° C. and measuring optical density at 420 nm. The absorbance is a measure of enzyme activity, which depends on cell number and reflects a receptor-mediated cell proliferation. The efficacy or intrinsic activity is calculated as a ratio of the maximal effect of the drug to the maximal effect of a standard full agonist for each receptor subtype. Brimonidine, also called UK14304, the chemical structure of which is shown below, is used as the standard agonist for the alpha2A, alpha2B and alpha2C receptors. […]

The target in another data set is T2, alpha2B receptor (Homo sapiens, UniProt P18089).
T2 construct: expressed in transfected cells; host or cells: NIH-3T3
T2 sequence (P18089 1-450): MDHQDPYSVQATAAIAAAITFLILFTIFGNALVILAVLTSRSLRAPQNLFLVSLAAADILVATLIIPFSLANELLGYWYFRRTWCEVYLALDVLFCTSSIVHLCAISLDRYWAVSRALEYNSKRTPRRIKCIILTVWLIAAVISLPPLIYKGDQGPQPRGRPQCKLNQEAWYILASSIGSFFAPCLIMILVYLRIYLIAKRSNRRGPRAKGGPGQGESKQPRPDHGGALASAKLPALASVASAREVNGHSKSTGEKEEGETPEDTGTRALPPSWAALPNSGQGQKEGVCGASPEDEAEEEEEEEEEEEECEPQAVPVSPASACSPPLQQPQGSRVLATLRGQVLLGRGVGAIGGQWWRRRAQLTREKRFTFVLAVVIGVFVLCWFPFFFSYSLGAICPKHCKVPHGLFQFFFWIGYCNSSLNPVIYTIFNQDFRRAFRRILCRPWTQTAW
Kind of data set: RSAT assay, alpha2B receptor. Conditions: NIH-3T3 cells, relative to brimonidine, NA = not active at concentrations less than 10 micromolar. Format: cell-based. How it is done:
as §1, §2

The target of another data set is T3, alpha2C receptor (Homo sapiens, UniProt P18825).
T3 construct: expressed in transfected cells; host or cells: NIH-3T3
T3 sequence (P18825 1-462): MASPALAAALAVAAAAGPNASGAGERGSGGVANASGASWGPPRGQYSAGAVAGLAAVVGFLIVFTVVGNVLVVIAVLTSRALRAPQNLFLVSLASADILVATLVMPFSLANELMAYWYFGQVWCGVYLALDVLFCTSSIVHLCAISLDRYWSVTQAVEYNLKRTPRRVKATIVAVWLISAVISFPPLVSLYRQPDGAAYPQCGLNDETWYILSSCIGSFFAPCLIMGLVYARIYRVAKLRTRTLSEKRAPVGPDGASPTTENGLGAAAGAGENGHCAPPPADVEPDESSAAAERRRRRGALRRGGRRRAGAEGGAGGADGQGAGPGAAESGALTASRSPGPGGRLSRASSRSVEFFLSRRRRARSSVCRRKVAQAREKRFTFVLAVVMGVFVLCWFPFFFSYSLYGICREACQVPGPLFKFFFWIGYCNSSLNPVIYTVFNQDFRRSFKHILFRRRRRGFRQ
Kind of data set: RSAT assay, alpha2C receptor. Format: cell-based. Conditions: NIH-3T3 cells, relative to brimonidine, NA = not active at concentrations less than 10 micromolar. How it is done:
as §1, §2

Another data set deals with α1. Kind of data set: RSAT assay, α1 receptor. Format: cell-based. The following applies: NIH-3T3 cells, ratio of maximal effect to that of standard full agonist, NA = not active at concentrations less than 10 micromolar. How it is done:
as §1
NIH-3T3 cells are plated at a density of 2×10^6 cells in 15 cm dishes and maintained in Dulbecco's modified Eagle's medium supplemented with 10% calf serum. […] After washing with phosphate-buffered saline, β-galactosidase enzyme activity is determined by adding […] of the chromogenic substrate (consisting of 3.5 mM o-nitrophenyl-β-D-galactopyranoside and 0.5% nonidet P-40 in phosphate buffered saline), incubating overnight at 30° C. and measuring optical density at 420 nm. The absorbance is a measure of enzyme activity, which depends on cell number and reflects a receptor-mediated cell proliferation. The efficacy or intrinsic activity is calculated as a ratio of the maximal effect of the drug to the maximal effect of a standard full agonist for each receptor subtype. […]

For a further data set, the system named is tactile hypersensitivity. Kind of data set: Mouse model of tactile hypersensitivity (sulprostone). Format: in vivo, Mice. Conditions: for activity in mouse model of tactile hypersensitivity: general statement, no dose. How it is done:
Mice (5-6; 25-35 g) are injected with sulprostone (300 ng/kg intraperitoneal), a prostaglandin receptor agonist that activates EP1 prostaglandin receptors. This chemical stimulus results in sensitivity to light stroking of their flanks with a paintbrush, which is assessed every five minutes from 15 minutes to 50 minutes post-injection. Animals are scored as 0 (no response), 1 (avoidance) or 2 (vigorous avoidance, vocalization) every five minutes and the scores are summed to yield a total hypersensitivity score (maximum=16).
Compounds were tested for their ability to reduce the tactile hypersensitivity score when administered 15 min prior to the sulprostone. […] An oral dose of 300 ug/kg was also active. An ester prodrug, compound 3, was also tested orally.

Data set [1] relates to intraocular pressure (IOP). Kind of data set: IOP model, normotensive rabbits. The following applies: for lowering of IOP: qualitative statement (FIG. 2); for decrease in IOP: topical, rabbit eye (FIG. 2). Type of data set: in vivo, New Zealand Rabbits. How it is done:
Male New Zealand Rabbits (6-7; 2-3.5 kg) are used to evaluate drug effects on normotensive IOP measurements. The rabbits are carefully handled so as to minimize excitement. Approximately 25 ul of dilute OphtheticR (0.05%) topical anesthesia is administered to each eye. An initial IOP determination is made in both eyes. Rabbits with 3 mmHg or greater difference in IOP between its right and left eyes are replaced at this time.
Immediately following the T=0 reading in both eyes the rabbits are treated with the compound by a topical route. 35 ul of the test solution is instilled onto the cornea of the randomly selected test eye. Pressure readings are taken at various times post-instillation. Animals are kept in their cages with access to food and water between measurements. Pressure readings utilize a Model 30 Classic™ Pneumatonometer to measure intraocular pressure (IOP) non-invasively through applanation tonometry. compound 1 (0.1%) caused a 20% decrease in IOP and its ester, AGN 204216 (0.03%), caused a 30% decrease in IOP (FIG. 2)

Data set [2] concerns locomotor activity. Kind of data set: Sedation model, exploratory locomotor activity, rats. The following applies: for rat locomotor activity: 30 min after dosing (FIG. 3). Format: in vivo. How it is done: (§3) The utility of alpha2-adrenergic agonists is limited by a range of side effects, particularly sedation and cardiovascular depression. The sedative activity of the compounds is assessed by measuring their ability to reduce the exploratory activity of mice and rats when placed in a dark chamber 30 min following dosing. The animal's activity is determined automatically by placing it in a digicom analyzer chamber (Omnitech Electronic). These chambers have photocells criss-crossing the box that are broken as the animal moves around. The computer analyzes this movement and records total activity over a 5-min time period. […] This represents greater than a 300-fold margin of safety (FIG. 4).

The subject of data set [3] is locomotor activity. Kind of data set: Sedation model, exploratory locomotor activity, mice. Type of data set: in vivo. How it is done:
as §3

For `O=c1[nH]cc(CC2CCC=C(CO)C2)[nH]1` (centres unmarked), the Alpha adrenergic activity result in the data set on Alpha adrenergic is reported as “no Alpha adrenergic activity”.
Regarding `NCC1=CCCC(Cc2c[nH]c(=S)[nH]2)C1` (centres unmarked), the “Intrinsic activity α2A” value at alpha2A receptor amounted to 0.81. In addition, the “Intrinsic activity α2B” value at alpha2B receptor stood at 0.86. Besides, the “Intrinsic activity α2C” value at alpha2C receptor was 0.95.
As for `OCC1=CCC[C@@H](Cc2c[nH]c(=S)[nH]2)C1`, the “Intrinsic activity α1” value in the data set with α1 was 1.1. Also, on alpha2A receptor, the “Intrinsic activity α2A” value is reported as 0.9. In addition, the “Intrinsic activity α2B” value at alpha2B receptor is listed as 1.0. Further, the “Intrinsic activity α2C” value at alpha2C receptor is on record as 1.1.
On to `OCC1=CCCC(Cc2c[nH]c(=S)[nH]2)C1` (centres unmarked) [Compound 1, 4-(3-hydroxymethyl-cyclohex-3-enylmethyl)-1,3-dihydro-imidazole-2-thione], for which the “reduction of tactile hypersensitivity” value with tactile hypersensitivity (dosed intraperitoneally 15 min prior to sulprostone, dose response) was “reduced the hypersensitivity in a dose-related manner”. Moreover, the “effect on tactile hypersensitivity” value is reported as “partial effect” in the data set on tactile hypersensitivity (intraperitoneal, 30 ug/kg); “full effect” in the data set with tactile hypersensitivity (intraperitoneal, 100 ug/kg); “active” in the data set on tactile hypersensitivity (oral dose of 300 ug/kg). In addition, the “total tactile hypersensitivity score” value with tactile hypersensitivity (intraperitoneal, 100 ug/kg, maximum=16, sulprostone 12-14, vehicle 4-6) worked out at 5. Further, in data set [1], the “lowering of IOP” value is recorded as “lower rabbit IOP”. Also, the “decrease in IOP” value in data set [1] (35 ul of 0.1% solution) was 20%. For the same molecule, the rat locomotor activity entry in the data set on locomotor activity [2] (intraperitoneal doses up to at least 3 mg/kg) and in the data set with locomotor activity [2] (oral doses up to at least 10 mg/kg) was “did not decrease rat locomotor activity” throughout. Further, the “sedation / decrease of locomotor activity” value in the data set on locomotor activity [2] (qualitative statement, no dose) is given as “does not sedate rats”. The “margin of safety (non-sedating dose vs effective dose)” value in the data set with locomotor activity [2] (rat locomotor activity vs tactile hypersensitivity doses) is not below 30 fold.
Consider `O=C(CC1CCCC1)OCC1=CCCC(Cc2c[nH]c(=S)[nH]2)C1` (centres unmarked) [Compound 3, cyclopentyl-acetic acid 5-(2-thioxo-2,3-dihydro-1H-imidazol-4-ylmethyl)-cyclohex-1-enylmethyl ester], for which the “effect on tactile hypersensitivity” value with tactile hypersensitivity (oral dose of 30 ug/kg) was “full effect”. The “alleviation of tactile hypersensitivity” value in the data set on tactile hypersensitivity (oral dosing, dose response (FIG. 1)) is reported as “alleviates tactile hypersensitivity; also recorded: very potent at alleviating the tactile sensitivity in a dose-related manner”. In addition, the “lowering of IOP” value in data set [1] is reported as “lower rabbit IOP”. The “decrease in IOP” value in [1] (35 ul of 0.03% solution) came to 30%. Moreover, the sedation entry in the data set on locomotor activity [2] (rats, oral dose of 3 mg/kg) was “did not sedate”; with locomotor activity [3] (mice, oral dose of 3 mg/kg), “did not sedate”. Moreover, the “margin of safety / therapeutic window” value with locomotor activity [3] (oral, mice or rats (FIG. 4)) was more than 300 fold.
Consider `Brc1c(N=C2NCCN2)ccc2nccnc12` [brimonidine, reference compound], for which the “activity in mouse model of tactile hypersensitivity” value with tactile hypersensitivity is “active”.
As for `Clc1cccc(Cl)c1N=C1NCCN1` [clonidine, reference compound], in the data set with tactile hypersensitivity, the “activity in mouse model of tactile hypersensitivity” value is “active”.
For the molecule `OCC1=CCCC(Cc2c[nH]c(=S)[nH]2)C1` (centres unmarked) [drawing 35], in the data set on α1, the “Intrinsic activity α1” value came out at 0.93. For the same molecule, the “Intrinsic activity α2A” value at alpha2A receptor is on record as 0.85. Besides, the “Intrinsic activity α2B” value on alpha2B receptor was found to be 0.98. Moreover, on alpha2C receptor, the “Intrinsic activity α2C” value came out at 1.10.
